Source: paper PMC10290137, “Systems-level analyses of protein-protein interaction network dysfunctions via epichaperomics identify cancer-specific mechanisms of stress adaptation” (Nature Communications, 2023)
Read-outs that look alike come from different tables or passages of the source. Values belong to the compound of their own block, whether it stands above or below them.

Tests used:
HSC70 [1] = system: T1, HSC70; assay: CETSA in MDA-MB-468 cells and homogenates; the value is the IC50 for epiHSP70s disruption in cancer cells; format: cell-based
T1 construct: gene HSPA8; endogenous epiHSP70 epichaperome assemblies in human cancer cells (probably MDA-MB-468); HSC70/HSP70 pool, no recombinant construct

HSC70 [2] = system: T1, HSC70; assay: as above; format: cell-based; remark: listed apart in the source
Source text: CETSA in MDA-MB-468 cells and homogenates; the value is the IC50 for epiHSP70s disruption in cancer cells (b12) on HSC70 | three evaluated YKs—YK5, YK198 and LSI137—we observed in CETSA, performed both in cells and cell homogenates, a significant thermal stabilization

HSC70 [3] = molecular target: T2, HSC70 (Homo sapiens, UniProt P11142); assay: reconstituted purified HSC70: fluorescence anisotropy peptide release ([…] YK198) and stopped-flow MABA-ATP binding ([…]); also CETSA; format: biochemical
T2 construct: gene HSPA8
T2 sequence (P11142 2-646): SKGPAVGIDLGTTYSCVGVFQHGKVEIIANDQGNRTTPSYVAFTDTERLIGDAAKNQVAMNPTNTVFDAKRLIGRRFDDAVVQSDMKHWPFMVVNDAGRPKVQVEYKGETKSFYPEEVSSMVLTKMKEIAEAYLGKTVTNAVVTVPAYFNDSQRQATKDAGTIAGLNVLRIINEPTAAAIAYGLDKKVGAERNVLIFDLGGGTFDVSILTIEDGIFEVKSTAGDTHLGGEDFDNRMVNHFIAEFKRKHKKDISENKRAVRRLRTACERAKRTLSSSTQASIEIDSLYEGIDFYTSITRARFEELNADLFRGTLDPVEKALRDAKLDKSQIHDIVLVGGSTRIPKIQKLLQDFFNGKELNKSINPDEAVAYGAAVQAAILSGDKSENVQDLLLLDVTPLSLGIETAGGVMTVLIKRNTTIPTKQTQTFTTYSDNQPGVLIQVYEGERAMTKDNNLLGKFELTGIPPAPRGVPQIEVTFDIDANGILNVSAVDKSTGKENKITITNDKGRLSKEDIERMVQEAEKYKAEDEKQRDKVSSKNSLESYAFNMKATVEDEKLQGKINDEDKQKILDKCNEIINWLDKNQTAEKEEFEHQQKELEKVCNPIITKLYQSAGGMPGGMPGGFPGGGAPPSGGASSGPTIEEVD

IC50 (HSC70 [1]): 0.06 µM
SMILES: COc1cccc(COc2nc(N3CCC(N(C)C)C3)ncc2Sc2ccc(N)nc2)c1 (stereo not drawn) [LSI137]

IC50 (HSC70 [2]): 5 µM
SMILES: C=CC(=O)Nc1cc(N)nc(Sc2c(OC)nc(N3CCN(C)CC3)nc2OC)n1 [YK5]

SMILES: CN1CCN(c2ncc(Sc3ccc(N)nc3)c(OCc3ccccc3)n2)CC1 [YK198]
reconstituted purified HSC70: fluorescence anisotropy peptide release (100 uM YK) (HSC70 [3]): biochemical effect of YKs on HSP70s manifests majorly at the allosteric release of the interactor protein, impairing its release
